Here are results for 1 substance from patent US6462078B1, “Epoxyvibsanin B” (priority 2001, dated 2002).

Holding throughout (format): cell-based, human
In data set [1] the test system is IL-12 production. Nature of the data set: IL-12 inhibitory assay in PBMC stimulated with IFN-γ and LPS (IL-12 p70 sandwich ELISA). Here is the method: Mononuclear cells from human peripheral blood (PBMC) were harvested from a leukopak using standard procedures. The cells, diluted to three millions per mL, were maintained in RPMI medium supplemented with fetal calf serum (10%), penicillin (100 U/mL), streptomycin (100 μg/mL) and […] (2 mM). Human interferon gamma (IFN-γ, Boehringer Mannheim; catalog no. 1040596) was diluted to 60 units/mL using the cell-containing supplemented medium. 100 μL of the resulting cell culture was added to each well of a 96-well U-shaped bottom microtiter plate, and incubated overnight in a humidified 37° C., 7% CO2 incubator. Epoxyvibsanin B in 4×RPMI stock medium was added to each well with a final concentration of 1 μg/mL, followed by the addition of lipopolysaccharide (LPS, Serratia […] Sigma; catalog no. L-4766) in 4×RPMI stock medium with a final concentration of 1 μg/mL. The plate was gently vortexed and continuously incubated for 16 hrs. IFN-γ and LPS have stimulated PBMC for IL-12 production. The supernatant from each cell culture was harvested, and the secreted IL-12 p70 in the supernatant was quantitated with a sandwich ELISA using anti-human IL-12 antibodies (R & D systems; catalog no. mAb 611 and catalog no. BAF 219). An epoxyvibsanin B-free control experiment was also perfonned. […] The inhibition of IL-12 production was further tested in parallel experiments using two cell lines: PBMC and the human promonocytic leukemia mononuclear cells (THP-1 cells). As described above, PBMC were added to a 96-well plate with 500,000 cells per well, and stimulated for IL-12 production with IFN-γ (200 U/ml) and LPS (1 μg/ml). In parallel, THP-1 cells were added to a 96-well plate with 800,000 cells per well, and stimulated for IL-12 production with IFN-γ (2000 U/ml) and Staph Aureus Cowan I (0.05%, SAC or Pansorbin; from Calbiochem; lot no. B15921). The supernatant from each cell culture was harvested and analyzed for IL-12 p70 with a sandwich ELISA by using the antibodies indicated above. […]
(In general: In an ELISA, binding on a coated surface is turned into a signal by an enzyme label.)

Data set [2] relates to THP-1 cells. The data set can be described thus: Cytotoxicity assay (MTS) in THP-1 cells. Here is the method:
(§1) Epoxyvibsanin B was also tested for cytotoxicity using a Cell Titer 96 Aqueous Non-radioactive kit (Promega, order no. G5421). Phenazine methosulfate (Sigma; catalog no. P 5812) was added as an electron donor to a cell culture containing PBMC (500,000 cells per well) and epoxyvibsanin B (final concentration of 1 μg/ml). 3-(4,5-Dimethylthiazole-2-yl)-5-(3-carbomethoxyphenyl)-2-(4-sulphophenyl)-2H-tetrazolium (MTS) was then added. Cells were incubated for 2 hours in a humidified 37° C., 7% CO2 incubator. The supernatant from the cell culture was harvested and its absorbance at 490 nm was recorded. Cell viability was determined based on the level of MTS (which reacted with mitochondria dehydrogenases enzymes in the living cells), as compared to that obtained from an epoxyvibsanin B-free control experiment. Epoxyvibsanin B was further tested for cytotoxicity toward THP-1 cells.

Data set [3] deals with IL-12 production. The data set can be described thus: IL-12 inhibitory assay in THP-1 cells stimulated with IFN-γ and SAC (IL-12 p70 sandwich ELISA). The following applies: THP-1 800,000 cells per well, IFN-γ 2000 U/ml + SAC 0.05%; read-out: IC50, inhibition of IL-12 production. Here is the method: The inhibition of IL-12 production was further tested in parallel experiments using two cell lines: PBMC and the human promonocytic leukemia mononuclear cells (THP-1 cells). As described above, PBMC were added to a 96-well plate with 500,000 cells per well, and stimulated for IL-12 production with IFN-γ (200 U/ml) and LPS (1 μg/ml). In parallel, THP-1 cells were added to a 96-well plate with 800,000 cells per well, and stimulated for IL-12 production with IFN-γ (2000 U/ml) and Staph Aureus Cowan I (0.05%, SAC or Pansorbin; from Calbiochem; lot no. B15921). The supernatant from each cell culture was harvested and analyzed for IL-12 p70 with a sandwich ELISA by using the antibodies indicated above. […] The activity of epoxyvibsanin B in inhibiting IL-12 production is 10-fold that of a known anti-inflammatory compound, dexamethazone.

The test system of data set [4] is PBMC. The protocol:
as §1

pIC50: −log10 of the molar value.

For the substance epoxyvibsanin B, the pIC50 (in general, the negative decadic logarithm of the IC50, by convention in mol/L) in data set [1] (PBMC 500,000 cells per well, IFN-γ 200 U/ml + LPS 1 μg/ml, read-out: IC50, inhibition of IL-12 production) is ~9.00; in data set [3] it was 7.70. Further, in data set [1] (PBMC, IFN-γ 60 units/mL + LPS 1 μg/mL, compound 1 μg/mL, 16 hrs), the “inhibition of IL-12 production, as compared with control” value was 90%. In addition, the “activity in inhibiting IL-12 production relative to dexamethazone” value in data set [1] (compared with dexamethazone, cell type not specified) is 10 fold. The CC50 (in general, the concentration that lowers cell viability or growth by half) is 10 µM in data set [2] and 5 µM in data set [4]. In addition, the “cytotoxicity compared with dexamethazone” value in data set [4] is given as “lower than that of dexamethazone”.
